The source of these data is patent US7776794B2, “Biosensor using living cells on silicon-based microarrays” (The Research Foundation of State University of New York, priority 2003, dated 2010).

In the test the test system is FT cells. Briefly: Amperometric recording of norepinephrine release from pre-loaded FT cells on the microarray upon ATP stimulation. Conditions: ATP final concentration 300 μM in FT medium; FT cells preloaded in 4 mM NE for 15 min; single electrode held at 700 mV (FIG. 9, trace 1). In kind it is cell-based, Rana catesbeiana. As for the experimental part: The cells, which have grown to become a confluent monolayer on the surface of the microarray, are “pre-loaded” with medium containing the appropriate amount of an oxidizable molecule, for example, 0.5-10 mM of a catecholamine such as norepinephrine (NE), for a time sufficient for the cells to endocytose the catecholamine, about 1-30 minutes. The pre-loading medium is then replaced with fresh medium, and the solution is grounded with a Ag/AgCl wire.
Within minutes of pre-loading, the cells are then exposed to a biological sample containing an analyte, the detection of which is desired. Binding of analyte to a receptor on the cells' surface increases intracellular calcium, thereby stimulating release of the pre-loaded NE. This secretion event is detected with millisecond temporal resolution via electrochemical oxidation of the secreted compound on an electrode that is voltage-clamped slightly above its redox potential. Increases in current due to oxidation of NE on the Cr/Au electrode is recorded. This is represented schematically in FIG. 4.
A microarray containing a confluent growth of FT cells was subsequently tested. To test the response properties of the cells to ATP (0.3 mM), microarrays with confluent cultures of cells were measured prior to preloading with NE. Then, cells were pre-loaded with varying concentrations of NE and ATP was reapplied. […]

Regarding `Nc1ncnc2c1ncn2[C@@H]1O[C@H](COP(=O)(O)OP(=O)(O)OP(=O)(O)O)[C@@H](O)[C@H]1O` [ATP], the “duration of current response” value was 9 to 10 min and the “peak current above baseline” value is given as “approximately 800 pA”.
